In the test the test system is histamine induced paw oedema. Briefly: Histamine induced paw oedema test (rat). In kind it is in vivo, rat (male Sprague-Dawley). Particulars: 1.0 mg/kg, intraperitoneally 15 minutes before the anaesthetics, paw swelling 20 minutes after histamine (50 microliter, 3 mg/ml). The procedure: Compounds of formula I may be used to treat all painful, hyperalgesic and/or inflammatory conditions in which C-fibres play a pathophysiological role by eliciting neurogenic pain or inflammation, i.e.:
I. Histamine induced paw oedema
The rat histamine paw oedema test was performed essentially as described by Amann et al. (Europ. J. Pharmacol. 279, 227-231, 1995). In brief 250-300 g male Sprague-Dawley rats were anaesthetized with pentobarbital sodium, and placed on a 32 degree (Celsius) heated table. Ten minutes later histamine (50 micoliter, 3 mg/ml) was injected in the right hind paw and 20 minutes hereafter the paw swelling was determined by water plethysmography (Ugo Basile). Test compounds were administered intraperitoneally at 15 minutes before the anaesthetics.
Values for inhibition of histamine induced oedema response for some representative compounds are recorded in table 1.

Regarding `Cl.O=C(O)c1cccc(N2CCN(CCCN3c4ccccc4CCc4ccccc43)CC2)n1` [Example 8, 6-(4-(3-(10,11-Dihydro-5H-dibenz[b,f]azepin-5-yl)-1-propyl)-1-piperazinyl)-2-pyridinecarboxylic acid hydrochloride], the “% Oedema inhibition” value is 61%.
Turning to `Cl.Cl.O=C(O)c1cccnc1N1CCN(CCC=C2c3cc(Cl)ccc3OCOc3ccc(Cl)cc32)CC1` [Example 2, 2-(4-(3-(2,10-Dichloro-12H-dibenzo[d,g][1,3]dioxocin-12-ylidene)-1-propyl)-piperazin-1-yl)-3-pyridinecarboxylic acid dihydrochloride], the “% Oedema inhibition” value is recorded as 24%.

For the origin of these results see patent US5916889A, “1,4-disubstituted piperazines” (Novo Nordisk A/S, priority 1996, dated 1999).
